Values quoted from earlier work in patent US12030852B2, “Method for producing fatty alcohol esters of hydroxycarboxylic acids” (IOI Oleo GmbH, priority 2019, dated 2024).

Conditions: even if several grams are taken; short plasma half-life

## CC(O)CC(=O)O (stereo not shown) [3-hydroxybutyric acid]
  duration of ketosis: about three to four
